# Source: US11413283B2, “Topical formulations for delivery of hedgehog inhibitor compounds and use thereof” (PellePharm, Inc., priority 2015, dated 2022)
# Where two headings read alike, the source gives them in different places.
# Key:
# [1] = Saturated solubility of itraconazole in solvents and solvent systems; type: physicochemical
# [2] = system: Hedgehog (Hh) signaling pathway; details: Kim and Beachy, Cancer Cell, 17, 388-399, 2010; read-out: IC50 value for itraconazole (half maximal inhibitory concentration); cited from earlier work
# [3] = Toxicokinetics of patidegib and metabolite IPI-230 in plasma after twice daily dermal application for 13 weeks; type: in vivo, Gottingen Minipig; details: for Cmax / AUC(0-t) / Tmax: Gottingen, minipig, plasma, topical or ocular; for Cmax / AUC(0-t): Gottingen Minipig plasma; for AUC(0-t): read-out: Mean Patidegib AUC0-24; for Tmax: dermal, minipig plasma, read-out: Individual Tmax
# Method: A study was conducted to evaluate the toxicokinetics of patidegib when administered twice daily via dermal application for 13 weeks. As described in Example 11, the formulation identified herein as SS14 was prepared, with patidegib concentrations of 2% and 4%. The formulations, along with a placebo, were applied topically to Gottingen Minipigs® twice daily, and blood samples were collected on study days 1, 14 and 90 for analysis of patidegib and its metabolite, IPI-230.
# A study was conducted to determine the toxicokinetics of patidegib and its metabolite, IPI-230, when patidegib was administered twice daily (approximately 8 hours apart) to Gottingen Minipigs® via dermal application for 13 weeks.
# The formulation identified herein as SS14 was prepared, with 2% patidegib and with 4% patidegib. A placebo formulation was also prepared that was identical in all respects to SS14 except for the absence of the patidegib. The formulation was applied topically to the animals at patidegib dose levels of 0 mg/kg/day (untreated), 0 mg/kg/day (placebo), 40 mg/kg/day, and 80 mg/kg/day to Groups 1, 2, 3, and 4, respectively. Groups 1 and 3 consisted of four animals/sex/group and Groups 2 and 4 consisted of six animals/sex/group. Doses were administered twice daily (approximately 8 hours apart). Blood samples were collected from all animals, survival permitting, on Days 1, 14 (Group 4 only), and 90 predose and at approximately 2, 4, 6, 8 (just prior to the second daily dose), 10, 12, 14, 16, and 24 hours following the first daily dose. Plasma samples were assayed for patidegib and IPI-230. Only the 2-hour samples from the untreated and placebo groups were analyzed.
# Noncompartmental analysis was applied to the individual plasma patidegib and IPI-230 concentration data for males and females. The following parameters were estimated: Cmax—Maximum observed concentration; Tmax—Time of maximum observed concentration; AUCTlast—Area under the concentration-time curve from hour 0 to the last measurable concentration, estimated by the linear trapezoidal rule; AUC0-24—Area under the concentration-time curve from hour 0 to hour 24, estimated by the linear trapezoidal rule; DN AUC0-24—Dose normalized AUC0-24, calculated as AUC0-24/dose level; DN Cmax—Dose normalized Cmax, calculated as Cmax/dose level.
# [4] = system: cellular hedgehog pathway; details: Tremblay et al., J. Med. Chem. 2009; read-out: half maximal effective concentration for inhibition of cellular hedgehog pathway; cited from earlier work
# [5] = minimum of 24 hours stirring at 25° C.
# [6] = both sexes, 40 mg/kg/day, Day 90, Group 3, 40 mg/kg/day dermal twice daily, sexes combined MF
# [7] = both sexes, 80 mg/kg/day, Day 1, Group 4, 80 mg/kg/day dermal twice daily, sexes combined MF
# [8] = both sexes, 80 mg/kg/day, Day 14, Group 4, 80 mg/kg/day dermal twice daily, sexes combined MF
# [9] = both sexes, 80 mg/kg/day, Day 90, Group 4, 80 mg/kg/day dermal twice daily, sexes combined MF
# [10] = female, 40 mg/kg/day, Day 1, Group 3, 40 mg/kg/day dermal twice daily, sex F
# [11] = female, 40 mg/kg/day, Day 90, Group 3, 40 mg/kg/day dermal twice daily, sex F
# [12] = female, 80 mg/kg/day, Day 1, Group 4, 80 mg/kg/day dermal twice daily, sex F
# [13] = female, 80 mg/kg/day, Day 14, Group 4, 80 mg/kg/day dermal twice daily, sex F
# [14] = female, 80 mg/kg/day, Day 90, Group 4, 80 mg/kg/day dermal twice daily, sex F
# [15] = male, 40 mg/kg/day, Day 90, Group 3, 40 mg/kg/day dermal twice daily, sex M
# [16] = male, 80 mg/kg/day, Day 1, Group 4, 80 mg/kg/day dermal twice daily, sex M
# [17] = male, 80 mg/kg/day, Day 14, Group 4, 80 mg/kg/day dermal twice daily, sex M
# [18] = male, 80 mg/kg/day, Day 90, Group 4, 80 mg/kg/day dermal twice daily, sex M
structure (smiles),measurement,setting,value
"CCC(C)n1ncn(-c2ccc(N3CCN(c4ccc(OCC5COC(Cn6cncn6)(c6ccc(Cl)cc6Cl)O5)cc4)CC3)cc2)c1=O [itraconazole, (2R,4S)-rel-1-(butan-2-yl)-4-{4-[4-(4-(4-{[(2R,4S)-2-(2,4-dichlorophenyl)-2-(1H-1,2,4-triazol-1-ylmethyl)-1,3-dioxolan-4-yl]methoxy}phenyl)piperazin-1-yl]phenyl}-4,5-dihydro-1H-1,2,4-triazol-5-one]",solubility of itraconazole in water,[1],highly insoluble
same,saturated solubility of itraconazole in N-methyl pyrrolidone,[1]; [5],7.65 % w/w
same,solubility of itraconazole in benzyl alcohol,[1]; [5],14.97 % w/w
same,solubility of itraconazole in castor oil,[1]; [5],0.01-0.05 % w/w
same,solubility of itraconazole in diisopropyl adipate,[1]; [5],0.01-0.05 % w/w
same,solubility of itraconazole in dimethicone 350 CST,[1]; [5],0.01-0.05 % w/w
same,solubility of itraconazole in dimethyl isosorbide,[1]; [5],2.32 % w/w
same,solubility of itraconazole in ethanol,[1]; [5],0.01-0.05 % w/w
same,solubility of itraconazole in phenoxyethanol,[1]; [5],7.87 % w/w
same,solubility of itraconazole in the remaining solvents investigated (not shown),[1]; [5],0.01-0.20 % w/w
same,IC50,[2],0.8 µM
CC1=C2C[C@H]3[C@@H](CC[C@@H]4C[C@H](NS(C)(=O)=O)CC[C@@]43C)[C@@H]2CC[C@@]2(C1)O[C@@H]1C[C@H](C)CN[C@H]1[C@H]2C [patidegib],dose proportionality of increases in mean Cmax and AUC0-24,"[3]; 40 to 80 mg/kg/day, Day 90",generally greater than dose proportional
same,Cmax,[3]; [6],21.9 ng/mL
same,AUC(0-t),[3]; [6],329 ng·h/mL
same,Cmax,[3]; [7],3.93 ng/mL
same,AUC(0-t),[3]; [7],37.1 ng·h/mL
same,Cmax,[3]; [8],249 ng/mL
same,AUC(0-t),[3]; [8],4110 ng·h/mL
same,Cmax,[3]; [9],75.8 ng/mL
same,AUC(0-t),[3]; [9],1240 ng·h/mL
same,Tmax,"[3]; both sexes, post the first or second dose on Day 1",2 to 8 h
same,Tmax,"[3]; both sexes, post the first or second dose on Days 14 and 90",2 to 6 h
same,Cmax,[3]; [10],4.65 ng/mL
same,AUC(0-t),[3]; [10],56.7 ng·h/mL
same,Cmax,[3]; [11],35 ng/mL
same,AUC(0-t),[3]; [11],526 ng·h/mL
same,Cmax,[3]; [12],4.03 ng/mL
same,AUC(0-t),[3]; [12],36.3 ng·h/mL
same,Cmax,[3]; [13],410 ng/mL
same,AUC(0-t),[3]; [13],6820 ng·h/mL
same,Cmax,[3]; [14],141 ng/mL
same,AUC(0-t),[3]; [14],2310 ng·h/mL
same,Cmax,[3]; [15],8.68 ng/mL
same,AUC(0-t),[3]; [15],132 ng·h/mL
same,Cmax,[3]; [16],3.84 ng/mL
same,AUC(0-t),[3]; [16],37.7 ng·h/mL
same,Cmax,[3]; [17],88.7 ng/mL
same,AUC(0-t),[3]; [17],1390 ng·h/mL
same,Cmax,[3]; [18],21.4 ng/mL
same,AUC(0-t),[3]; [18],352 ng·h/mL
same,EC50,[4],0.007 µM
